Source: the supplement of paper PMC8671470

Tests used:
Assay in all cases: cell viability (% survival relative to DMSO control, bortezomib = 0%); higher = less cytotoxic
Details in all cases: 72 h
SHI-1 = system: SHI-1
Outline: (§1)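 Fifteen myeloid leukaemia cell lines were exposed to compounds at 1, 10, 100, 1000 or 10000 nM in 384-well plates for 72 h at 37 °C and 5% CO2. Viability was read by CellTiter-Glo luminescence and normalised, with vehicle as 100% and a 10 µM positive control as 0%. Values are percent survival averaged over duplicates.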

MOLM-13 = system: MOLM-13
Outline: as §1

ML-2 = system: ML-2
Outline: as §1

KCL-22 = system: KCL-22
Outline: as §1

Cl.OC[C@H]1NC[C@@H](O)[C@@H](O)[C@@H]1O [1-Deoxymannojirimycin hydrochloride]
cell viability (SHI-1; 1 nM): 105%
cell viability (SHI-1; 10 nM): 96.3%
cell viability (SHI-1; 100 nM): 98.7%
cell viability (SHI-1; 1000 nM): 110%
cell viability (SHI-1; 10000 nM): 89.5%
cell viability (MOLM-13; 1 nM): 115%
cell viability (MOLM-13; 10 nM): 88.3%
cell viability (MOLM-13; 100 nM): 96.3%
cell viability (MOLM-13; 1000 nM): 104%
cell viability (MOLM-13; 10000 nM): 105%
cell viability (ML-2; 1 nM): 101%
cell viability (ML-2; 10 nM): 90.6%
cell viability (ML-2; 100 nM): 100%
cell viability (ML-2; 1000 nM): 110%
cell viability (ML-2; 10000 nM): 87.6%
cell viability (KCL-22; 1 nM): 95.9%
cell viability (KCL-22; 10 nM): 86.8%
cell viability (KCL-22; 100 nM): 96.4%
cell viability (KCL-22; 1000 nM): 111%
cell viability (KCL-22; 10000 nM): 105%

CCOC(=O)[C@@]1(CCCCCCOc2ccc(Cl)cc2)CO1 [Etomoxir]
cell viability (SHI-1; 1 nM): 107%
cell viability (SHI-1; 10 nM): 108%
cell viability (SHI-1; 100 nM): 110%
cell viability (SHI-1; 1000 nM): 105%
cell viability (SHI-1; 10000 nM): 104%
cell viability (MOLM-13; 1 nM): 134%
cell viability (MOLM-13; 10 nM): 99.7%
cell viability (MOLM-13; 100 nM): 93.1%
cell viability (MOLM-13; 1000 nM): 92%
cell viability (MOLM-13; 10000 nM): 93%
cell viability (ML-2; 1 nM): 109%
cell viability (ML-2; 10 nM): 109%
cell viability (ML-2; 100 nM): 114%
cell viability (ML-2; 1000 nM): 87.6%
cell viability (ML-2; 10000 nM): 99.9%
cell viability (KCL-22; 1 nM): 104%
cell viability (KCL-22; 10 nM): 112%
cell viability (KCL-22; 100 nM): 116%
cell viability (KCL-22; 1000 nM): 101%
cell viability (KCL-22; 10000 nM): 78.9%

O=C(O)c1cc2sccc2[nH]1 [4H-thieno[3,2-b]pyrrole-5-carboxylic acid]
cell viability (SHI-1; 1 nM): 108%
cell viability (SHI-1; 10 nM): 96.4%
cell viability (SHI-1; 100 nM): 90.4%
cell viability (SHI-1; 1000 nM): 97%
cell viability (SHI-1; 10000 nM): 107%
cell viability (MOLM-13; 1 nM): 103%
cell viability (MOLM-13; 10 nM): 94.7%
cell viability (MOLM-13; 100 nM): 89.3%
cell viability (MOLM-13; 1000 nM): 112%
cell viability (MOLM-13; 10000 nM): 109%
cell viability (ML-2; 1 nM): 105%
cell viability (ML-2; 10 nM): 96.6%
cell viability (ML-2; 100 nM): 84.2%
cell viability (ML-2; 1000 nM): 99.1%
cell viability (ML-2; 10000 nM): 113%
cell viability (KCL-22; 1 nM): 90.3%
cell viability (KCL-22; 10 nM): 104%
cell viability (KCL-22; 100 nM): 84.7%
cell viability (KCL-22; 1000 nM): 101%
cell viability (KCL-22; 10000 nM): 99.8%

CCCc1nn(C)c2c(O)nc(-c3cc(S(=O)(=O)N4CCN(C)CC4)ccc3OCC)nc12 [Sildenafil]
cell viability (SHI-1; 1 nM): 103%
cell viability (SHI-1; 10 nM): 95%
cell viability (SHI-1; 100 nM): 104%
cell viability (SHI-1; 1000 nM): 111%
cell viability (SHI-1; 10000 nM): 114%
cell viability (MOLM-13; 1 nM): 101%
cell viability (MOLM-13; 10 nM): 112%
cell viability (MOLM-13; 100 nM): 96.3%
cell viability (MOLM-13; 1000 nM): 125%
cell viability (MOLM-13; 10000 nM): 106%
cell viability (ML-2; 1 nM): 92.3%
cell viability (ML-2; 10 nM): 103%
cell viability (ML-2; 100 nM): 93.1%
cell viability (ML-2; 1000 nM): 109%
cell viability (ML-2; 10000 nM): 107%
cell viability (KCL-22; 1 nM): 89.7%
cell viability (KCL-22; 10 nM): 102%
cell viability (KCL-22; 100 nM): 97.5%
cell viability (KCL-22; 1000 nM): 88.7%
cell viability (KCL-22; 10000 nM): 113%

CN(C)c1nc(O)c2[nH]cnc2n1 [2-Dimethylamino-6-hydroxypurine]
cell viability (SHI-1; 1 nM): 104%
cell viability (SHI-1; 10 nM): 90.8%
cell viability (SHI-1; 100 nM): 94.8%
cell viability (SHI-1; 1000 nM): 99.9%
cell viability (SHI-1; 10000 nM): 98.2%
cell viability (MOLM-13; 1 nM): 96.1%
cell viability (MOLM-13; 10 nM): 65.7%
cell viability (MOLM-13; 100 nM): 104%
cell viability (MOLM-13; 1000 nM): 91%
cell viability (MOLM-13; 10000 nM): 66.9%
cell viability (ML-2; 1 nM): 97.7%
cell viability (ML-2; 10 nM): 89.6%
cell viability (ML-2; 100 nM): 95.3%
cell viability (ML-2; 1000 nM): 107%
cell viability (ML-2; 10000 nM): 94.5%
cell viability (KCL-22; 1 nM): 98.2%
cell viability (KCL-22; 10 nM): 81.3%
cell viability (KCL-22; 100 nM): 106%
cell viability (KCL-22; 1000 nM): 99%
cell viability (KCL-22; 10000 nM): 87.1%

CC(C)C[C@H](NC(=O)[C@@H](O)[C@H](N)Cc1ccccc1)C(=O)O [Ubenimex]
cell viability (SHI-1; 1 nM): 99.4%
cell viability (SHI-1; 10 nM): 104%
cell viability (SHI-1; 100 nM): 93.2%
cell viability (SHI-1; 1000 nM): 80.5%
cell viability (SHI-1; 10000 nM): 91.3%
cell viability (MOLM-13; 1 nM): 110%
cell viability (MOLM-13; 10 nM): 100%
cell viability (MOLM-13; 100 nM): 114%
cell viability (MOLM-13; 1000 nM): 94.8%
cell viability (MOLM-13; 10000 nM): 94.3%
cell viability (ML-2; 1 nM): 108%
cell viability (ML-2; 10 nM): 109%
cell viability (ML-2; 100 nM): 101%
cell viability (ML-2; 1000 nM): 87.3%
cell viability (ML-2; 10000 nM): 99.8%
cell viability (KCL-22; 1 nM): 118%
cell viability (KCL-22; 10 nM): 120%
cell viability (KCL-22; 1000 nM): 89.2%
cell viability (KCL-22; 10000 nM): 95.2%

O=C1Oc2ccccc2C(=O)C1CC1C(=O)Oc2ccccc2C1=O (centres undefined) [Dicumarol]
cell viability (SHI-1; 1 nM): 95.8%
cell viability (SHI-1; 10 nM): 105%
cell viability (SHI-1; 100 nM): 104%
cell viability (SHI-1; 1000 nM): 106%
cell viability (SHI-1; 10000 nM): 105%
cell viability (MOLM-13; 1 nM): 105%
cell viability (MOLM-13; 10 nM): 109%
cell viability (MOLM-13; 100 nM): 107%
cell viability (MOLM-13; 1000 nM): 120%
cell viability (MOLM-13; 10000 nM): 97.1%
cell viability (ML-2; 1 nM): 93.8%
cell viability (ML-2; 10 nM): 91.9%
cell viability (ML-2; 100 nM): 99.2%
cell viability (ML-2; 1000 nM): 104%
cell viability (ML-2; 10000 nM): 95.4%
cell viability (KCL-22; 1 nM): 96.6%
cell viability (KCL-22; 10 nM): 97.3%
cell viability (KCL-22; 100 nM): 107%
cell viability (KCL-22; 1000 nM): 107%
cell viability (KCL-22; 10000 nM): 102%

O=C(c1ccc(OCCN2CCCCC2)cc1)c1c(-c2ccc(O)cc2)sc2cc(O)ccc12 [Raloxifene]
cell viability (SHI-1; 1 nM): 97%
cell viability (SHI-1; 10 nM): 102%
cell viability (SHI-1; 100 nM): 107%
cell viability (SHI-1; 1000 nM): 110%
cell viability (SHI-1; 10000 nM): 89.5%
cell viability (MOLM-13; 1 nM): 79.1%
cell viability (MOLM-13; 10 nM): 82.2%
cell viability (MOLM-13; 100 nM): 106%
cell viability (MOLM-13; 1000 nM): 83.2%
cell viability (MOLM-13; 10000 nM): 77%
cell viability (ML-2; 1 nM): 101%
cell viability (ML-2; 10 nM): 91.2%
cell viability (ML-2; 100 nM): 101%
cell viability (ML-2; 1000 nM): 96.9%
cell viability (ML-2; 10000 nM): 82.9%
cell viability (KCL-22; 1 nM): 93.9%
cell viability (KCL-22; 10 nM): 92.7%
cell viability (KCL-22; 100 nM): 100%
cell viability (KCL-22; 1000 nM): 94.5%
cell viability (KCL-22; 10000 nM): 75.8%

Cc1coc2c1C(=O)C(=O)c1c-2ccc2c(C)cccc12 [Tanshinone I]
cell viability (SHI-1; 1 nM): 110%
cell viability (SHI-1; 10 nM): 88.4%
cell viability (SHI-1; 100 nM): 108%
cell viability (SHI-1; 1000 nM): 105%
cell viability (SHI-1; 10000 nM): 84.2%
cell viability (MOLM-13; 1 nM): 89.8%
cell viability (MOLM-13; 10 nM): 103%
cell viability (MOLM-13; 100 nM): 127%
cell viability (MOLM-13; 1000 nM): 94.3%
cell viability (MOLM-13; 10000 nM): 101%
cell viability (ML-2; 1 nM): 113%
cell viability (ML-2; 10 nM): 114%
cell viability (ML-2; 100 nM): 97.8%
cell viability (ML-2; 1000 nM): 103%
cell viability (ML-2; 10000 nM): 71.1%
cell viability (KCL-22; 1 nM): 125%
cell viability (KCL-22; 10 nM): 100%
cell viability (KCL-22; 100 nM): 108%
cell viability (KCL-22; 1000 nM): 111%
cell viability (KCL-22; 10000 nM): 59.5%

c1ccc2c(c1)OCC(=C1NCCN1)O2 [Idazoxan]
cell viability (SHI-1; 1 nM): 105%
cell viability (SHI-1; 10 nM): 103%
cell viability (SHI-1; 100 nM): 89.8%
cell viability (SHI-1; 1000 nM): 101%
cell viability (SHI-1; 10000 nM): 95.1%
cell viability (MOLM-13; 1 nM): 97.2%
cell viability (MOLM-13; 10 nM): 109%
cell viability (MOLM-13; 100 nM): 95.1%
cell viability (MOLM-13; 1000 nM): 89.5%
cell viability (MOLM-13; 10000 nM): 102%
cell viability (ML-2; 1 nM): 97.4%
cell viability (ML-2; 10 nM): 97.9%
cell viability (ML-2; 100 nM): 86.9%
cell viability (ML-2; 1000 nM): 94.2%
cell viability (ML-2; 10000 nM): 93.7%
cell viability (KCL-22; 1 nM): 105%
cell viability (KCL-22; 10 nM): 104%
cell viability (KCL-22; 100 nM): 78.6%
cell viability (KCL-22; 1000 nM): 91%
cell viability (KCL-22; 10000 nM): 87.4%

CC(/C=C1\SC(=S)N(CC(=O)O)C1=O)=C\c1ccccc1 [Epalrestat]
cell viability (SHI-1; 1 nM): 120%
cell viability (SHI-1; 10 nM): 100%
cell viability (SHI-1; 100 nM): 106%
cell viability (SHI-1; 1000 nM): 93.5%
cell viability (SHI-1; 10000 nM): 113%
cell viability (MOLM-13; 1 nM): 120%
cell viability (MOLM-13; 10 nM): 106%
cell viability (MOLM-13; 100 nM): 106%
cell viability (MOLM-13; 1000 nM): 99.1%
cell viability (MOLM-13; 10000 nM): 110%
cell viability (ML-2; 1 nM): 99.7%
cell viability (ML-2; 10 nM): 101%
cell viability (ML-2; 100 nM): 99.8%
cell viability (ML-2; 1000 nM): 104%
cell viability (ML-2; 10000 nM): 112%
cell viability (KCL-22; 1 nM): 106%
cell viability (KCL-22; 10 nM): 99.8%
cell viability (KCL-22; 100 nM): 100%
cell viability (KCL-22; 1000 nM): 101%
cell viability (KCL-22; 10000 nM): 102%
